Reference: US7498330B2, “4-oxo-4,6,7,8-tetrahydro-pyrrolo[1,2-a]pyrazine-6-carboxamide compounds” (Les Laboratories Servier, priority 2004, dated 2009)
Structures can show the parent of a compound that is named as a salt.

These molecules were tested against T1, human thrombin (Homo sapiens, UniProt P00734) (assay: Inhibition of human thrombin activity on human fibrinogen (fibrin formation, 405 nm)). Details: thrombin 0.7 nM, purified human fibrinogen, pre-incubation 20° C. 10 minutes, pH 7.4; read-out: IC50 (concentration of the compounds that inhibits 50% of the enzymatic activity of the thrombin).
T1 construct: human thrombin (Sigma, specific activity 3230 UNIH/mg); purchased Sigma
Type: biochemical
Procedure: For in vitro evaluation of the inhibitory activity of the products of the invention on human thrombin (Sigma, specific activity 3230 UNIH/mg), purified human fibrinogen ([…], Stago) (Fg) was added to a given amount of thrombin (0.7 nM) that had previously been incubated with or without the inhibitor to be tested (20° C., 10 minutes).
Inhibitors, enzymes and substrates are diluted in the same buffer ([…] phosphate buffer, pH 7.4, containing 0.12 M sodium chloride and 0.05% bovine serum albumin) and then distributed on a polystyrene microtitre plate in a volume of 50 μl.
The fibrin formed by the thrombin is measured using a spectrophotometer at 405 nm after from 10 to 15 minutes' reaction at 20° C.
The table below gives in nM the concentration of the compounds that inhibits 50% of the enzymatic activity (IC50) of the thrombin compared with the control without product.
With `O=C(NCc1ccccc1F)[C@@H]1CCc2cnc(NCC(F)(F)c3ccc4ccccc4[n+]3[O-])c(=O)n21` [Example 31, (6S)-3-{[2,2-Difluoro-2-(1-oxido 2-quinolinyl)ethyl]amino}-N-(2-fluorobenzyl)4-oxo-4,6,7,8-tetrahydropyrrolo[1,2-a]pyrazine 6-carboxamide] the IC50 was 8.4 nM.
`O=C(NCc1cccs1)[C@@H]1CCc2cnc(NCC(F)(F)c3cccc[n+]3[O-])c(=O)n21` [Example 24, (6S)-3-{[2,2-Difluoro-2-(1-oxido-2-pyridyl)ethyl]amino}-N-(2-thienylmethyl)-4-oxo-4,6,7,8-tetrahydropyrrolo[1,2-a]pyrazine-6-carboxamide hydrochloride] was tested, and the IC50 was 60 nM.
`O=C(NCc1ccccc1F)[C@@H]1CCc2cnc(NCC(F)(F)c3cccc[n+]3[O-])c(=O)n21` [Example 3, (6S)-3-{[2,2-Difluoro-2-(1-oxido-2-pyridyl)ethyl]amino}-N-(2-fluorobenzyl)-4-oxo-4,6,7,8-tetrahydropyrrolo[1,2-a]pyrazine-6-carboxamide] was tested, and the IC50 was 16 nM.
Work on `O=C(NCc1ccccc1Cl)C1CCc2cnc(NCC(F)(F)c3cccc[n+]3[O-])c(=O)n21` (racemic) [Example 8, 3-{[2,2-Difluoro-2-(1-oxido-2-pyridyl)ethyl]amino}-N-(2-chlorobenzyl)-4-oxo-4,6,7,8-tetrahydropyrrolo[1,2-a]pyrazine-6-carboxamide] yielded an IC50 of 38 nM.
Molecule `O=C(COc1ccccc1CNC(=O)C1CCc2cnc(NCC(F)(F)c3cccc[n+]3[O-])c(=O)n21)NCCc1ccccn1` (stereo not shown) [Example 15, 3-{[2,2-Difluoro-2-(1-oxido-2-pyridyl)ethyl]amino}4-oxo-N-[2-(2-oxo-2-{[2-(2-pyridyl)ethyl]amino}ethoxy)benzyl]-4,6,7,8-tetrahydropyrrolo[1,2-a]pyrazine-6-carboxamide hydrochloride] has an IC50 of 1.4 nM.
`O=C(NCc1c(F)ccc(F)c1F)[C@@H]1CCc2cnc(NCC(F)(F)c3cccc[n+]3[O-])c(=O)n21` [Example 21, (6S)-3-{[2,2-Difluoro-2-(1-oxido-2-pyridyl)ethyl]amino}-N-(2,3,6-trifluorobenzyl)-4-oxo-4,6,7,8-tetrahydropyrrolo[1,2-a]pyrazine-6-carboxamide] showed an IC50 of 11 nM.
Molecule `O=C(NCc1ccccc1F)C1CCc2cnc(NCC(F)(F)c3cccc[n+]3[O-])c(=O)n21` (racemic) [Example 1, 3-{[2,2-Difluoro-2-(1-oxido-2-pyridyl)ethyl]amino}-N-(2-fluorobenzyl)4-oxo-4,6,7,8-tetrahydropyrrolo[1,2-a]pyrazine-6-carboxamide] has an IC50 of 28 nM.
